Experimental data published in patent US10160747B2, “Compounds and methods for kinase modulation, and indications therefor” (Plexxikon Inc., priority 2016, dated 2018).

Key:
c-KIT = biological target: T1, c-KIT (Homo sapiens, UniProt P10721); test: c-KIT recombinant enzyme kinase assay (AlphaScreen); type: biochemical; details: 100 ATP, 8 pt
T1 construct: purchased Millipore 14-559K
Summary of the method: (§1)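 AlphaScreen proximity signal at 580 nm, from PY20 acceptor and streptavidin donor beads, measures tyrosine phosphorylation of 30 nM biotin-poly(Glu4-Tyr) peptide by recombinant kinase. ATP: 10 μM (FLT3 mutants), 100 μM (c-KIT). IC50 from loss of signal.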

FLT3-ITD = biological target: T2, FLT3-ITD (Homo sapiens, UniProt P36888); test: FLT3-ITD recombinant enzyme kinase assay (AlphaScreen); type: biochemical; details: 8 pt; read-out: FLT3_ITD 8 pt: IC50
T2 sequence (P36888 1-993): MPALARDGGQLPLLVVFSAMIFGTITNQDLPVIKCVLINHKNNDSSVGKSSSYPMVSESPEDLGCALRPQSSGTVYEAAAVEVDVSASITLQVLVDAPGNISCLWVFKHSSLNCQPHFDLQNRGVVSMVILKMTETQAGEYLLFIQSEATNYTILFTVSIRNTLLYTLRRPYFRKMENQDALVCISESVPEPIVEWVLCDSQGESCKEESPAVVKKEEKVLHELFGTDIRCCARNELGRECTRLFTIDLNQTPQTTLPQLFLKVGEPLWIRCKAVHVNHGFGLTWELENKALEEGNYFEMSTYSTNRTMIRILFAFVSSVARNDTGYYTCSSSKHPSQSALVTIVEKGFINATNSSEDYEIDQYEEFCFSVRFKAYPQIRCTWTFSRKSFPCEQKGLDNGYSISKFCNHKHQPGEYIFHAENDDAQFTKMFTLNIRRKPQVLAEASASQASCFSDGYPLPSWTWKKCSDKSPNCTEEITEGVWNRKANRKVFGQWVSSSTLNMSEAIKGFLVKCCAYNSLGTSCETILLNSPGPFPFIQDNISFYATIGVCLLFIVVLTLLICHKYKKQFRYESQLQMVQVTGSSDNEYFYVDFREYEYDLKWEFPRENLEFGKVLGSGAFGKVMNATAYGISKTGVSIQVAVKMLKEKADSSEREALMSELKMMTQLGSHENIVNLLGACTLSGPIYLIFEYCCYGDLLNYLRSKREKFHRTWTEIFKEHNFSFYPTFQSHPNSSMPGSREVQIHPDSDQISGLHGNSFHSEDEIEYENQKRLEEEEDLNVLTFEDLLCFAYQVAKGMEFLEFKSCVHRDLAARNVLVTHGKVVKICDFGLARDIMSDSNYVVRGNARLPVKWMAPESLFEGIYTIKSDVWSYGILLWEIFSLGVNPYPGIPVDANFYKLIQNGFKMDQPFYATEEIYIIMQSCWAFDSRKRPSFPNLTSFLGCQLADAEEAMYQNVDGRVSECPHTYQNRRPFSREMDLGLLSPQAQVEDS
Summary of the method: as §1

T1 sequence (P10721 26-976): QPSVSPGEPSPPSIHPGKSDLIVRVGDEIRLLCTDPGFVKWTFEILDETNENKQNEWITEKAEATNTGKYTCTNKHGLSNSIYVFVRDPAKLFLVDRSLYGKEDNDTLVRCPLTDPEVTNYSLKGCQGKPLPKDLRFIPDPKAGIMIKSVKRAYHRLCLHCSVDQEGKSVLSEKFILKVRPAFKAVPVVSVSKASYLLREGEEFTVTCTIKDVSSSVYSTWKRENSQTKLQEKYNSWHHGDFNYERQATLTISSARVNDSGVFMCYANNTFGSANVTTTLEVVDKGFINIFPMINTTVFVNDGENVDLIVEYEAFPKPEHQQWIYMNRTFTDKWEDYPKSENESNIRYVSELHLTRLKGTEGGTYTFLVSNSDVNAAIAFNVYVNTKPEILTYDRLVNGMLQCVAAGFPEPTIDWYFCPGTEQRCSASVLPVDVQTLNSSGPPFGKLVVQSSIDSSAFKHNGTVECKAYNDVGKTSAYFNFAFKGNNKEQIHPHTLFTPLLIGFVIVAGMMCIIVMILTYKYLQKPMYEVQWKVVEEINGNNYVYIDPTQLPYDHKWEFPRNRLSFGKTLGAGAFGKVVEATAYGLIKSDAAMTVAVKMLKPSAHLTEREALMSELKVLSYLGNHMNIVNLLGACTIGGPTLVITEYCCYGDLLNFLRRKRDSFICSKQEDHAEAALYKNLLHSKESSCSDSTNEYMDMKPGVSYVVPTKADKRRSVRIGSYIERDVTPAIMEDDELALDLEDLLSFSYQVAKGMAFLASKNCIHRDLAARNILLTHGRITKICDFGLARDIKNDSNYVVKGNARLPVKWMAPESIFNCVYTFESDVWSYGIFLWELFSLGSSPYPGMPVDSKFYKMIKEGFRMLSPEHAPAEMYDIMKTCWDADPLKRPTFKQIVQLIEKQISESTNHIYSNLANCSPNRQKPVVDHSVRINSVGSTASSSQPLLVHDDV

SMILES | IC50 (c-KIT) [µM] | IC50 (FLT3-ITD) [µM]
COc1ncc(NC(=O)Cc2ccc(-c3cnc4[nH]cc(Cl)c4n3)cc2F)cc1C(F)(F)F [Compound P-0047, 2-[4-(7-chloro-5H-pyrrolo[2,3-b]pyrazin-2-yl)-2-fluoro-phenyl]-N-[6-methoxy-5-(trifluoromethyl)-3-pyridyl]acetamide] | 0.0001 to 10 | 0.0001 to 10
COc1ncc(NC(=O)Cc2cc(F)c(-c3cnc4[nH]cc(F)c4c3)cc2F)cc1C(F)(F)F [Compound P-0051, 2-[2,5-difluoro-4-(3-fluoro-1H-pyrrolo[2,3-b]pyridin-5-yl)phenyl]-N-[6-methoxy-5-(trifluoromethyl)-3-pyridyl]acetamide] | 0.0001 to 10 | 0.0001 to 10
Cn1cc(Nc2ncc(-c3ccc(CC(=O)Nc4cncc(C(C)(F)F)c4)c(F)c3)cn2)cn1 [Compound P-0090, N-[5-(1,1-difluoroethyl)-3-pyridyl]-2-[2-fluoro-4-[2-[(1-methylpyrazol-4-yl)amino]pyrimidin-5-yl]phenyl]acetamide] | 0.0001 to 10 | 0.0001 to 10
O=C(Cc1ccc(-c2cnc(Nc3cnn4ccccc34)nc2)cc1F)Nc1cncc(C(F)(F)F)c1 [Compound P-0058, 2-[2-fluoro-4-[2-(pyrazolo[1,5-a]pyridin-3-ylamino)pyrimidin-5-yl]phenyl]-N-[5-(trifluoromethyl)-3-pyridyl]acetamide] | 0.0001 to 10 | 0.0001 to 10
Cn1cnc(Nc2ncc(-c3cc(F)c(CC(=O)Nc4cncc(C(F)(F)F)c4)cc3F)cn2)c1 [Compound P-0078, 2-(2,5-difluoro-4-(2-((1-methyl-1H-imidazol-4-yl)amino)pyrimidin-5-yl)phenyl)-N-(5-(trifluoromethyl)pyridin-3-yl)acetamide] | 0.0001 to 10 | 0.0001 to 10
COc1cncc(NC(=O)Cc2ccc(-c3cnc(Nc4cnn(C)c4)nc3)cc2F)c1 [Compound P-0086, 2-[2-fluoro-4-[2-[(1-methylpyrazol-4-yl)amino]pyrimidin-5-yl]phenyl]-N-(5-methoxy-3-pyridyl)acetamide] | 0.0001 to 10 | 0.0001 to 10
Cn1cc(Nc2ncc(-c3ccc(CC(=O)Nc4cc(C(F)(F)F)ccn4)c(F)c3)cn2)cn1 [Compound P-0082, 2-[2-fluoro-4-[2-[(1-methylpyrazol-4-yl)amino]pyrimidin-5-yl]phenyl]-N-[4-(trifluoromethyl)-2-pyridyl]acetamide] | 0.0001 to 10 | 0.0001 to 10
Cc1ncc(NC(=O)Cc2ccc(-c3cnc(Nc4cnn(C)c4C)nc3)cc2F)cc1C(F)(F)F [Compound P-0076, 2-[4-[2-[(1,5-dimethylpyrazol-4-yl)amino]pyrimidin-5-yl]-2-fluoro-phenyl]-N-[6-methyl-5-(trifluoromethyl)-3-pyridyl]acetamide] | 0.0001 to 10 | 0.0001 to 10
CCC(=O)c1c[nH]c2ncc(-c3ccc(CC(=O)Nc4cnc(C)c(C(F)(F)F)c4)c(F)c3)cc12 [Compound P-0070, 2-[2-fluoro-4-(3-propanoyl-1H-pyrrolo[2,3-b]pyridin-5-yl)phenyl]-N-[6-methyl-5-(trifluoromethyl)-3-pyridyl]acetamide] | 0.0001 to 10 | 0.0001 to 10
COc1ncc(NC(=O)Cc2ccc(-c3cnc(Nc4cn[nH]c4)nc3)cc2F)cc1C(F)(F)F [Compound P-0026, 2-[2-fluoro-4-[2-(1H-pyrazol-4-ylamino)pyrimidin-5-yl]phenyl]-N-[6-methoxy-5-(trifluoromethyl)-3-pyridyl]acetamide] | 0.0001 to 10 | 0.0001 to 10
O=C(Cc1ccc(-c2cnc3[nH]cc(Cl)c3n2)cc1F)Nc1cncc(C(F)(F)F)c1 [Compound P-0061, 2-[4-(7-chloro-5H-pyrrolo[2,3-b]pyrazin-2-yl)-2-fluoro-phenyl]-N-[5-(trifluoromethyl)-3-pyridyl]acetamide] | 0.0001 to 10 | 0.0001 to 10
CC(=O)c1c[nH]c2ncc(-c3ccc(CC(=O)Nc4cncc(C(F)(F)F)c4)c(F)c3)cc12 [Compound P-0055, 2-[4-(3-acetyl-1H-pyrrolo[2,3-b]pyridin-5-yl)-2-fluoro-phenyl]-N-[5-(trifluoromethyl)-3-pyridyl]acetamide] | 0.0001 to 10 | 0.0001 to 10
Cc1ncc(NC(=O)Cc2ccc(-c3cnc(Nc4cnn5ccccc45)nc3)cc2F)cc1C(F)(F)F [Compound P-0065, 2-(2-fluoro-4-(2-(pyrazolo[1,5-a]pyridin-3-ylamino)pyrimidin-5-yl)phenyl)-N-(6-methyl-5-(trifluoromethyl)pyridin-3-yl)acetamide] | 0.0001 to 10 | 0.0001 to 10
Cc1ncc(NC(=O)Cc2ccc(-c3cnc4[nH]cc(F)c4c3)cc2F)cc1C(F)(F)F [Compound P-0062, 2-[2-fluoro-4-(3-fluoro-1H-pyrrolo[2,3-b]pyridin-5-yl)phenyl]-N-[6-methyl-5-(trifluoromethyl)-3-pyridyl]acetamide] | 0.0001 to 10 | 0.0001 to 10
Cn1cnc(Nc2ncc(-c3ccc(CC(=O)Nc4cc(C(C)(F)F)ccn4)cc3F)cn2)c1 [Compound P-0171, N-[4-(1,1-difluoroethyl)-2-pyridyl]-2-[3-fluoro-4-[2-[(1-methylimidazol-4-yl)amino]pyrimidin-5-yl]phenyl]acetamide] | 0.0001 to 10 | 0.0001 to 10
O=C(Cc1ccc(-c2cnc3[nH]cc(C(=O)C4CC4)c3c2)cc1F)Nc1ccnc(C(F)(F)F)c1 [Compound P-0032, 2-[4-[3-(cyclopropanecarbonyl)-1H-pyrrolo[2,3-b]pyridin-5-yl]-2-fluoro-phenyl]-N-[2-(trifluoromethyl)-4-pyridyl]acetamide] | 0.0001 to 10 | 0.0001 to 10
COc1ncc(NC(=O)Cc2ccc(-c3cnc(Nc4cnn5ccccc45)nc3)cc2F)cc1C(F)(F)F [Compound P-0037, 2-[2-fluoro-4-[2-(pyrazolo[1,5-a]pyridin-3-ylamino)pyrimidin-5-yl]phenyl]-N-[6-methoxy-5-(trifluoromethyl)-3-pyridyl]acetamide] | 0.0001 to 10 | 0.0001 to 10
O=C(Cc1ccc(-c2cnc3[nH]cc(F)c3c2)cc1F)Nc1ccnc(C(F)(F)F)c1 [Compound P-0029, 2-[2-fluoro-4-(3-fluoro-1H-pyrrolo[2,3-b]pyridin-5-yl)phenyl]-N-[2-(trifluoromethyl)-4-pyridyl]acetamide] | 0.0001 to 10 | 0.0001 to 10
COc1ncc(NC(=O)Cc2ccc(-c3cnc4[nH]cc(F)c4c3)cc2F)cc1C(F)(F)F [Compound P-0034, 2-[2-fluoro-4-(3-fluoro-1H-pyrrolo[2,3-b]pyridin-5-yl)phenyl]-N-[6-methoxy-5-(trifluoromethyl)-3-pyridyl]acetamide] | 0.0001 to 10 | 0.0001 to 10
Cn1cc(Nc2ncc(-c3ccc(CC(=O)NCc4ccccn4)c(F)c3)cn2)cn1 [Compound P-0088, 2-[2-fluoro-4-[2-[(1-methylpyrazol-4-yl)amino]pyrimidin-5-yl]phenyl]-N-(2-pyridylmethyl)acetamide] | 0.0001 to 10 | 0.0001 to 10
COc1ncc(NC(=O)Cc2ccc(-c3cnc4[nH]cc(C(=O)C5CC5)c4c3)cc2F)cc1C(F)(F)F [Compound P-0036, 2-[4-[3-(cyclopropanecarbonyl)-1H-pyrrolo[2,3-b]pyridin-5-yl]-2-fluoro-phenyl]-N-[6-methoxy-5-(trifluoromethyl)-3-pyridyl]acetamide] | 0.0001 to 10 | 0.0001 to 10
Cc1ncc(NC(=O)Cc2ccc(-c3cnc4[nH]cc(Cl)c4n3)cc2F)cc1C(F)(F)F [Compound P-0059, 2-[4-(7-chloro-5H-pyrrolo[2,3-b]pyrazin-2-yl)-2-fluoro-phenyl]-N-[6-methyl-5-(trifluoromethyl)-3-pyridyl]acetamide] | 0.0001 to 10 | 0.0001 to 10
Cn1cc(Nc2ncc(-c3ccc(CC(=O)Nc4cncc(C5CC5)c4)c(F)c3)cn2)cn1 [Compound P-0081, N-(5-cyclopropyl-3-pyridyl)-2-[2-fluoro-4-[2-[(1-methylpyrazol-4-yl)amino]pyrimidin-5-yl]phenyl]acetamide] | 0.0001 to 10 | 0.0001 to 10
Cc1nn(C)cc1Nc1ncc(-c2ccc(CC(=O)Nc3cnc(C)c(C(F)(F)F)c3)c(F)c2)cn1 [Compound P-0077, 2-[4-[2-[(1,3-dimethylpyrazol-4-yl)amino]pyrimidin-5-yl]-2-fluoro-phenyl]-N-[6-methyl-5-(trifluoromethyl)-3-pyridyl]acetamide] | 0.0001 to 10 | 0.0001 to 10
